Patent publication US20090123565A9, “Copper-dependent non-traditional pro-inflammatory cytokine export and methods, compositions and kits relating thereto” (Maine Medical Center Research Institute, priority 2001, published 2009)
Starred links: 1 amine or outer side, 2 acyl side, 3 side chain; linkers in the order of their positions; H or OH if unused. Positions of bridges follow the written chain, without caps; N, C: chain ends. Non-standard residues stand in square brackets, D forms with d. Residues, ends and D or L forms follow the SMILES beside them. Chains are numbered I, II in the order given. Actinocin(9to1) = Cc1c2oc3c(C)ccc(C(=O)[*:1])c3nc-2c(C(=O)[*:2])c(N)c1=O; NMeV = CN[C@H](C(=O)O)C(C)C; Sar = CNCC(=O)O

System: IL1α release from NIH 3T3 cell transfectants
Assay: Heat shock-induced release of IL1α from NIH 3T3 cell transfectants (immunoblot of conditioned media)
Format: cell-based, human
Settings: actinomycin D 10 μg/ml
Experimental: FIG. 5, comprising FIGS. 5A and 5B, depict the involvement of Cu^2+ in IL1α release. FIG. 5A is an image depicting results obtained using NIH 3T3 cells stably transfected with mIL1α-βGal. The cells were incubated for 18 hours at 37 C in the absence and presence of the Cu^2+ chelator, tetrathiomolybdate (TTM) as indicated and the untreated and treated cells either maintained at 37 C or subjected to heat shock as described in FIG. 3. The conditioned medium was evaluated for IL1α-βGal release by IL1α immunoblot analysis, and cell lysates from TTM-treated cells were used to monitor the intracellular level of IL1α-βGal expression. […] FIG. 5B is an image depicting release of IL1α-βGal in myc-S100A13 and IL1α-βGal NIH 3T3 cell cotransfectants and in insert-less vector and mIL1α-βGal NIH 3T3 cell transfectants in the presence and absence actinomycin D (10 μg/ml), as indicated, in response to heat shock. Conditioned media were processed and evaluated for IL1α-βGal immunoblot analysis as described in Tarantini et al. (2001).
Stable NIH 3T3 cell transfectants were generated accordingly with the following cDNA constructs cloned into pMEXneo (Tarantini, et al. 2001; Tarantini, et al. 1995; Tarantini, et al. 1998; LaVallee, et al. 1998; Carreira, et al. 1998; Landriscina, et al., 2001): human S100A13 with an amino-terminal fusion to a 6 Myc Tag (Myc-S100A13) (Landriscina, et al., 2001); human Myc-S100A13ΔBR (Landriscina, et al., 2001); human mIL1α (residues 113-271); human mIL1α with a carboxy-terminal fusion to a βGalactosidase tag (mIL1α-βGal) (Tarantini, et al. 2001); and pIL1α (residues 1-271) with a carboxy-terminal fusion to βGalactosidase (pIL1α-βGal) (Tarantini, et al. 2001). Recombinant human mIL1α was provided by Hoffmann-LaRoche. Recombinant human S100A13, as well as S100A13ΔBR, a S100A13 construct with the basic residue rich domain (residues 88 to 98) deleted, were generated as previously described (Landriscina, et al., 2001).
NIH 3T3 cell transfectants were grown to 70-80% confluency and prior to temperature stress, the cells were washed with serum-free DMEM. The heat shock was performed as previously described (Tarantini et al., 1995) in serum-free DMEM for 110 min at 42° C. Control cultures were incubated at 37° C. in serum-free DMEM. […] Immunoprecipitated and eluted proteins were resolved by 8% and 12% acrylamide SDS-PAGE, respectively, and evaluated by either IL1α (Tarantini, et al. 2001) or Myc (Landriscina, et al., 2001) immunoblot analysis. […] The effects of actinomycin D (Sigma Chemical Co., St. Louis, Mo.), cyclohexamide (Sigma) and tetrathiomolybdate (Sigma-Aldrich) on IL1α release were evaluated as previously reported (LaVallee et al., 1998).

Cc1c2oc3c(C)ccc(C(=O)N[C@@H]4C(=O)N[C@H](C(C)C)C(=O)N5CCC[C@H]5C(=O)N(C)CC(=O)N(C)[C@@H](C(C)C)C(=O)O[C@@H]4C)c3nc-2c(C(=O)N[C@@H]2C(=O)N[C@H](C(C)C)C(=O)N3CCC[C@H]3C(=O)N(C)CC(=O)N(C)[C@@H](C(C)C)C(=O)O[C@@H]2C)c(N)c1=O [actinomycin D] (I: T[dV]P[Sar][NMeV] / II: T[dV]P[Sar][NMeV]; ester I:1-I:C, II:1-II:C; linker I:N-II:N via Actinocin(9to1))
repression of export of IL1α-βGal in response to heat shock (Myc-S100A13 and IL1α-βGal NIH 3T3 cell cotransfectants): unable to repress | repression of release of IL1α-βGal in response to heat shock (insert-less vector and IL1α-βGal NIH 3T3 cell cotransfectants): able to repress
